The subject of this assay is NHL patients. The assay is described as follows: clinical study A: copanlisib therapy in NHL patients, best response and PFS, also by baseline tumor gene expression. The class given is in vivo, human. The conditions noted are these: for PFS (Independent*) Days / Best Response (Independent*): one line per subject; for PFS (Independent*) Days: censor status in column beside.

[1] abbreviates: mantle cell lymphoma patients (N = 2).

The structures appear in SMILES notation. Values joined by “and” are separate entries in the source; they are usually repeats but may differ in a detail not shown here. Equal values may be shown once.

`COc1c(OCCCN2CCOCC2)ccc2c1N=C(NC(=O)c1cnc(N)nc1)N1CCN=C21` [copanlisib]: the “HR for PFS” value by setting is: (CSTB, median gene expression level as cutoff, p=0.07) 3.3 (0.9-12); (MT2A, median gene expression level as cutoff, p=0.30) 1.3 (0.8-2.2); (NOP10, median gene expression level as cutoff, p=0.23) 1.9 (0.7-5.4); (high vs low BCR WGS, nominal Cox model p<0.0001) 0.035; (high vs low GPR18 expression, nominal Cox model p<0.01) 0.17. Besides, the “median PFS days” value (CSTB, median gene expression level as cutoff, shorter-PFS group (high expression per text)) is given as 74 days. This molecule registered a PFS (NHL patients with low BCR WGS (median cut-off 41.7)) of 62 days. The “PFS (Independent*) Days” value reads like this: (diffuse large B-cell lymphoma patients (N = 5)) 56 days and 13 days and 49 days; (follicular lymphoma patients (N = 10)) 53 days and 74 days and 28 days; under setting [1], 7 days; (trans. indolent lymphoma patients (N = 2)) 16 days and 42 days. Moreover, the “Best Response (Independent*)” value runs as follows: (follicular lymphoma patients (N = 10), data cutoff February 2015) “CRu”; under setting [1], “CRu”.

Values taken from US20190038632A1 (BAYER PHARMA AKTIENGESELLSCHAFT, priority 2016, published 2019).
